We go through four compounds from patent publication US20120295917A1, “IMATINIB DICHL[…] ANTI-CANCER AGENT COMPRISING THE SAME” (CELLTRION PHARM, INC., priority 2009, published 2012).

Data set [1] is described as follows: Hygroscopicity test (Karl-Fischer titrator). In kind it is physicochemical. The settings on record: 40° C., relative humidity 75%.
The subject of data set [2] is colorectal adenocarcinoma cells (HT29). The data set can be described thus: Cytotoxicity test (MTT). In kind it is cell-based. The settings on record: for absorbance value based on 100% of the absorbance value for the control: HT29, 72 hours, MTT, 570 nm, mean of n=3. As for the experimental part:
Using a medium containing 10% of fetal bovine serum (FBS), Rosewell Park Memorial Institute medium (RPMI) and 1% of penicillin/streptomycin, a 2×10^5 cells/ml suspension of colorectal adenocarcinoma cells (HT29) was prepared. The prepared suspension was seeded into each well of […] and cultured for 24 hours. Each sample was added to three wells and cultured (n=3).
The medium was removed from each well after 24 hours and the wells were washed with phosphate buffered saline (PBS). […] 100 µl of each prepared solution was seeded into the wells and cultured at 37° C. for 72 hours.
10 μl of 3-(4,5-dimethylthiazol-2-yl)-2,5-diphenyltetrazolium bromide (MTT) was added to each sample and cultured for 4 hours. The absorbance of the solution was measured at 570 nm using Enzyme-linked immunosorbent assay (ELISA).

For data set [3] the following is noted: accelerated condition for 28 days; in words.
Description: Particularly, each imatinib acid addition salt was stored in a sealed state under an accelerated condition (a temperature of 40° C. and a relative humidity of 75%), and after 0 (zero), 3, 7, 14 and 28 days, the remaining rate of the active ingredient was analyzed with a high performance liquid chromatography (HPLC).
The test system of another data set is rats. To be noted: cited from earlier work.

Take `CS(=O)(=O)O.Cc1ccc(NC(=O)c2ccc(CN3CCN(C)CC3)cc2)cc1Nc1nccc(-c2cccnc2)n1` [Imatinib Methanesulfonate, reference compound]: the “amount of moisture contained in the compound” value (shortened to “amount of moisture contained”) in data set [1] (2 hours) is 0.89 weight %; in data set [1] (8 hours), 0.86 weight %; in data set [1] (24 hours), 0.84 weight %; in data set [1] (3 days), 1.11 weight %; in data set [1] (Initial), 0.83 weight %.

For `Cc1ccc(NC(=O)c2ccc(CN3CCN(C)CC3)cc2)cc1Nc1nccc(-c2cccnc2)n1` [Imatinib dichloroacetate (crystalline form I)], the “anti-cancer effects compared with imatinib methanesulfonate (β crystalline form)” value in data set [2] (HT29 cytotoxicity, in words) was “more potent anti-cancer effects”. For the same compound, the “stability compared with imatinib methanesulfonate (β crystalline form)” value in data set [3] was “same or higher level of stability”. The “amount of moisture contained” value turned out to be 1.14 weight % in data set [1] (2 hours); 1.18 weight % in data set [1] (8 hours); 1.14 weight % in data set [1] (24 hours); 1.26 weight % in data set [1] (3 days); 1.14 weight % in data set [1] (Initial).

Take `Cc1ccc(NC(=O)c2ccc(CN3CCN(C)CC3)cc2)cc1Nc1nccc(-c2cccnc2)n1` [Imatinib dichloroacetate (crystalline form II)]: the “stability compared with imatinib methanesulfonate (β crystalline form)” value in data set [3] was “same or higher level of stability”. The “amount of moisture contained” value in data set [1] (2 hours) worked out at 0.83 weight %; in data set [1] (8 hours) it was 0.87 weight %; in data set [1] (24 hours) it was 0.86 weight %; in data set [1] (3 days) it was 0.95 weight %; in data set [1] (Initial) it was 0.85 weight %.

Turning to `O=C(O)C(Cl)Cl` [dichloroacetic acid], the “absorbance value based on 100% of the absorbance value for the control” value in data set [2] (1 nM) came out at 101.2%; in data set [2] (10 nM), 98.6%; in data set [2] (100 nM), 95.2%. Moreover, the “LD50 (the lethal dose causing death in 50% of rats on oral administration)” value in the data set on rats is recorded as 2,820 mg/kg.
